In US20250320184A1 (SIRONAX LTD., priority 2022, published 2025) one finds IC50 data, which are given here for 38 compounds.

In this assay the target is T1, SARM1 (50-724) (Homo sapiens, UniProt Q6SZW1).
T1 sequence (Q6SZW1 50-724): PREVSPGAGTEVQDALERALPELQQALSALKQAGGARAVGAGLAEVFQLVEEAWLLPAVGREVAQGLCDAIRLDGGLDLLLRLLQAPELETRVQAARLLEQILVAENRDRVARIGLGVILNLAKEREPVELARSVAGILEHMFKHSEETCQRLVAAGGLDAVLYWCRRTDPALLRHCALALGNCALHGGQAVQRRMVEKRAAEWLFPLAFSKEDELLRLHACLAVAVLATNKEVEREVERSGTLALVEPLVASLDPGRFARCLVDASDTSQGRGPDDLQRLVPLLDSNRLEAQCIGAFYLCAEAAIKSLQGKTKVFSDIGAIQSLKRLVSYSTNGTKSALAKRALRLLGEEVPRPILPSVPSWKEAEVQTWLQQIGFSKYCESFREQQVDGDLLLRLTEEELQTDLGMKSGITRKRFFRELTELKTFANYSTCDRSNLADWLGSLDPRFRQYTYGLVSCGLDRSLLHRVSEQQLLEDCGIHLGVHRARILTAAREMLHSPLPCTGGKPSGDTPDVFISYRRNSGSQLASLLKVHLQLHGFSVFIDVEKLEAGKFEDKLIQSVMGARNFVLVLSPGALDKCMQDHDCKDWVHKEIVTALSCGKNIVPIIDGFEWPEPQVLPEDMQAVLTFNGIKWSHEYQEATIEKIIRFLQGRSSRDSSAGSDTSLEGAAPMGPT
Nature of the assay: biochemical.

Procedure: An enzymatic assay was performed in a 384-well plate using Dulbecco's phosphate-buffered saline (PBS) as the reaction buffer. […] The reaction was initiated by adding a mixture of 200 μM nicotinamide mononucleotide (NMN) as activator and 100 μM NAD^+ as substrate. After 1 h of incubation at room temperature, the reaction was terminated with 10 times volume of 70% acetonitrile, then centrifuged at 3800 rpm for 10 min.

`O=C1Nc2cc(NS(=O)(=O)c3cccc(Cl)c3Cl)ccc2CO1` [Compound 224, 2,3-dichloro-N-(2-oxo-1,4-dihydro-2H-benzo[d][1,3]oxazin-7-yl)benzenesulfonamide] had an IC50 of under 0.1 µM.
Next, `O=c1[nH]cc(Br)c2ccc(NS(=O)(=O)c3cccc(Cl)c3Cl)cc12` [Compound 57, N-(4-bromo-1-oxo-1,2-dihydroisoquinolin-7-yl)-2,3-dichlorobenzenesulfonamide]: 0.1 to 0.5 µM.
`CC(Nc1ccc2snc(C(=O)N3CC(O)C3)c2c1)c1nc(Cl)c(Cl)s1` (racemic) [Compound 346, (5-((1-(4,5-dichlorothiazol-2-yl)ethyl)amino)benzo[d]isothiazol-3-yl)(3-hydroxyazetidin-1-yl)methanone] gave an IC50 of under 0.1 µM.
Next, `CC(Nc1ccc2c(c1)C(=O)N(C(C)C(N)=O)C2(C)C)c1nc(Cl)c(Cl)s1` (mixture of isomers) [Compound 334, 2-(5-((1-(4,5-dichlorothiazol-2-yl)ethyl)amino)-1,1-dimethyl-3-oxoisoindolin-2-yl)propanamide]: under 0.1 µM; `CC1(C)C(=O)N(CCCC(N)=O)c2cc(NS(=O)(=O)c3cccc(Cl)c3Cl)ccc21` [Compound 280, 4-(6-((2,3-dichlorophenyl)sulfonamido)-3,3-dimethyl-2-oxoindolin-1-yl)butanamide]: under 0.1 µM; `O=S(=O)(Nc1cc(F)c2cn[nH]c2c1)c1cccc(Cl)c1Cl` [Compound 74, 2,3-dichloro-N-(4-fluoro-1H-indazol-6-yl)benzenesulfonamide]: 0.1 to 0.5 µM.
For `Cc1n[nH]c(=O)c2cc(NC(C)c3nccc(Cl)c3Cl)ccc12` (racemic) [Compound 266, 7-((1-(3,4-dichloropyridin-2-yl)ethyl)amino)-4-methylphthalazin-1(2H)-one], the IC50 was under 0.1 µM.
As for `Cc1nn(CC(N)=O)c(=O)c2cc(NC(C)c3nc(Cl)c(Cl)s3)ccc12` (single isomer, unassigned) [Compound 357], the IC50 is under 0.1 µM.
Consider `Cc1c2c(F)cc(NC(C)c3nc(Cl)c(Cl)s3)cc2nn1CC(N)=O` (single isomer, unassigned) [Compound 391], for which the IC50 was under 0.1 µM.
For `Cc1c(Cl)cccc1S(=O)(=O)Nc1ccc2c(c1)C(=O)NCC2` [Example 5A, 3-chloro-2-methyl-N-(1-oxo-1,2,3,4-tetrahydroisoquinolin-7-yl)benzenesulfonamide], the IC50 was under 0.1 µM.
With `Cc1cc(S(=O)(=O)Nc2ccc3c(c2)C(=O)NCC3)c(F)cc1F` [Compound 30, 2,4-difluoro-5-methyl-N-(1-oxo-1,2,3,4-tetrahydroisoquinolin-7-yl)benzenesulfonamide] the figure was 0.1 to 0.5 µM; with `CC1CCN(S(=O)(=O)Nc2ccc3c(c2)C(=O)NCC3)CC1` [Example 164, 4-methyl-N-(1-oxo-1,2,3,4-tetrahydroisoquinolin-7-yl)piperidine-1-sulfonamide], over 1 µM; with `CC(Nc1cc(F)c2ncn(-c3nncs3)c(=O)c2c1)c1nc(Cl)c(Cl)s1` (racemic) [Example 369, 6-((1-(4,5-dichlorothiazol-2-yl)ethyl)amino)-8-fluoro-3-(1,3,4-thiadiazol-2-yl)quinazolin-4(3H)-one], under 0.1 µM.
Next, `CC(Nc1ccc2ccn(CC(N)=O)c(=O)c2c1)c1nc(Cl)c(Cl)s1` (racemic) [Compound 290, 2-(7-((1-(4,5-dichlorothiazol-2-yl)ethyl)amino)-1-oxoisoquinolin-2(1H)-yl)acetamide]: under 0.1 µM; `CC1(C)CCCCN1S(=O)(=O)Nc1ccc2c(c1)C(=O)NCC2` [Example 168, 2,2-dimethyl-N-(1-oxo-1,2,3,4-tetrahydroisoquinolin-7-yl)piperidine-1-sulfonamide]: over 1 µM.
With `CC(Nc1cc(F)c2ncn(-c3n[nH]cc3Cl)c(=O)c2c1)c1nc(Cl)c(Cl)s1` (racemic) [Example 370, 3-(4-chloro-1H-pyrazol-3-yl)-6-((1-(4,5-dichlorothiazol-2-yl)ethyl)amino)-8-fluoroquinazolin-4(3H)-one] the figure was under 0.1 µM.
Consider `CC(Nc1ccc2cn[nH]c2c1)c1cccc(Cl)c1Cl` (centres unmarked) [Example 12A, N-(1-(2,3-dichlorophenyl)ethyl)-1H-indazol-6-amine], for which the IC50 was 0.5 to 1 µM.
Next, `Cc1c(F)cccc1S(=O)(=O)Nc1ccc2c(c1)CCC(=O)N2` [Compound 8, 3-fluoro-2-methyl-N-(2-oxo-1,2,3,4-tetrahydroquinolin-6-yl)benzenesulfonamide]: over 1 µM; `CC1(C)C(=O)Nc2cc(NS(=O)(=O)c3c(Cl)ccc(Cl)c3Cl)ccc21` [Compound 209, 2,3,6-trichloro-N-(3,3-dimethyl-2-oxoindolin-6-yl)benzenesulfonamide]: under 0.1 µM; `O=c1[nH]cc(F)c2ccc(NS(=O)(=O)c3cccc(Cl)c3Cl)cc12` [Compound 62, 2,3-dichloro-N-(4-fluoro-1-oxo-1,2-dihydroisoquinolin-7-yl)benzenesulfonamide]: under 0.1 µM.
Next, `Cc1c(F)cccc1S(=O)(=O)Nc1ccc2c(c1)C(=O)N(C)CC2` [Compound 21, 3-fluoro-2-methyl-N-(2-methyl-1-oxo-1,2,3,4-tetrahydroisoquinolin-7-yl)benzenesulfonamide]: 0.1 to 0.5 µM; `COC(=O)C1Cc2ccc(NS(=O)(=O)c3cccc(Cl)c3Cl)cc2C(=O)N1` (racemic) [Compound 90, methyl 7-((2,3-dichlorophenyl)sulfonamido)-1-oxo-1,2,3,4-tetrahydroisoquinoline-3-carboxylate]: 0.1 to 0.5 µM.
For `CC(Nc1ccc2nc[nH]c(=O)c2c1)c1c(Cl)ccc(F)c1Cl` (single isomer, unassigned) [Example 201A], the IC50 was over 1 µM.
For `Cc1nn(CCO)c2cc(NC(C)c3nc(Cl)c(Cl)s3)ccc12` (racemic) [Compound 301, 2-(6-((1-(4,5-dichlorothiazol-2-yl)ethyl)amino)-3-methyl-1H-indazol-1-yl)ethan-1-ol], the IC50 was under 0.1 µM.
Next, `O=S(=O)(Nc1ccc2c(Cl)n[nH]c2c1)c1cccc(Cl)c1Cl` [Compound 78, 2,3-dichloro-N-(3-chloro-1H-indazol-6-yl)benzenesulfonamide]: under 0.1 µM; `Cc1cnc2cc(NS(=O)(=O)c3cccc(Cl)c3Cl)ccc2c1` [Compound 26, 2,3-dichloro-N-(3-methylquinolin-7-yl)benzenesulfonamide]: under 0.1 µM; `Cc1cc(F)cc(C(Nc2ccc3c(c2)C(=O)NCC3)C(F)(F)F)c1` (centres unmarked) [Example 174, 7-((2,2,2-trifluoro-1-(3-fluoro-5-methylphenyl)ethyl)amino)-3,4-dihydroisoquinolin-1(2H)-one]: 0.1 to 0.5 µM.
As for `CC(Nc1ccc2c(c1)c(N)nn2C)c1nc(Cl)c(Cl)s1` (centres unmarked) [Compound 288, N5-(1-(4,5-dichlorothiazol-2-yl)ethyl)-1-methyl-1H-indazole-3,5-diamine], the IC50 is under 0.1 µM.
`Cc1c2ccc(NC(C)c3sc(Cl)nc3Cl)cc2nn1CC(N)=O` (single isomer, unassigned) [Compound 347A] yielded an IC50 of over 1 µM.
With `Cc1nc2cc(NS(=O)(=O)c3cccc(Cl)c3Cl)ccc2s1` [Compound 29, 2,3-dichloro-N-(2-methylbenzo[d]thiazol-5-yl)benzenesulfonamide] the figure was 0.1 to 0.5 µM; with `O=S(=O)(Nc1ccc2cccnc2c1)c1cccc(Cl)c1Cl` [Compound 42, 2,3-dichloro-N-(quinolin-7-yl)benzenesulfonamide], under 0.1 µM; with `CC(Nc1ccc2cc[nH]c(=O)c2c1)c1nccc(Cl)c1Cl` (single isomer, unassigned) [Example 194B], over 1 µM.
Next, `Cc1c2ccc(NC(C)c3nc(Cl)c(Cl)s3)cc2nn1C1CC(O)C1` (mixture of isomers) [Compound 339, 3-(6-((1-(4,5-dichlorothiazol-2-yl)ethyl)amino)-3-methyl-2H-indazol-2-yl)cyclobutan-1-ol]: under 0.1 µM; `Cc1cccc(F)c1S(=O)(=O)Nc1ccc2c(c1)C(=O)NCC2` [Compound 61, 2-fluoro-6-methyl-N-(1-oxo-1,2,3,4-tetrahydroisoquinolin-7-yl)benzenesulfonamide]: over 1 µM; `Cc1sc(C(C)Nc2ccc3c(C)n(CC(N)=O)nc3c2)nc1Cl` (racemic) [Compound 379, 2-(6-((1-(4-chloro-5-methylthiazol-2-yl)ethyl)amino)-3-methyl-2H-indazol-2-yl)acetamide]: under 0.1 µM.
With `Cn1cnc2cc(NS(=O)(=O)c3cccc(Cl)c3Cl)ccc21` [Compound 77, 2,3-dichloro-N-(1-methyl-1H-benzo[d]imidazol-5-yl)benzenesulfonamide] the figure was 0.1 to 0.5 µM; with `Cc1c(F)cccc1S(=O)(=O)Nc1ccc2c(c1)C(=O)OCC2` [Compound 5, 3-fluoro-2-methyl-N-(1-oxoisochroman-7-yl)benzenesulfonamide], over 1 µM.
For `CC(Nc1ccc2c(c1)C(=O)NCC2)c1cc(Cl)nc(Cl)c1` (racemic) [Example 98, 7-((1-(2,6-dichloropyridin-4-yl)ethyl)amino)-3,4-dihydroisoquinolin-1(2H)-one], the IC50 was over 1 µM.

As usually defined, the IC50 is the concentration that gives 50% inhibition. Lower therefore signals higher potency.
